Laboratory results taken from US8206690B2, “Oral health composition” (Mars Incorporated, priority 2006, dated 2012).

What was measured:
Format in all cases: cell-based, dogs
[1] = tested on: biofilms representative of canine dental plaque; assay: Canine plate biofilm assay (PBA): biomass quantification (crystal violet assay); conditions: 48 hours, extracts at 500 μg/ml, OD595 vs no active controls
Procedure: (§1) The assay requires fresh supragingival canine dental plaque and saliva for inoculation. The inoculum consists of pooled dental plaque and unfiltered saliva sampled from a group of 14 dogs, varying in age, breed and oral health status.
(§2) The plaque and saliva were resuspended in artificial saliva to form the inoculum of approximately 15% plaque and 30% saliva.
(§3) The plate biofilm assay (PBA) utilises a 24 well plate format in which biofilms, representative of canine dental plaque, are grown on hydroxyapatite (HA) discs. Prior to being introduced to the 24 well assay plate, each HA disc is preconditioned for 2 hours in a solution of 50% filter sterilised canine saliva in artificial canine saliva. The preconditioning step stimulates the formation of a salivary pellicle on the HA disc surface. […] Each HA disc, with the exception of those being used for biomass quantification, is placed into 500 μl PBS and vortex mixed for 30 seconds to remove biofilm growth from the disc into solution. […] Biofilm-covered HA discs that are being used for biomass quantification are removed from the 24 well assay plate and used directly in the crystal violet assay.
The total amount of biofilm grown on the HA discs was quantified using the crystal violet staining method. Biomass was represented as being directly proportional to the OD reading at 595 nm (OD595) of the samples compared to controls. […]

[2] = tested on: Trypsin-like protease activity; assay: Canine plate biofilm assay (PBA): protease activity (liquid BAPNA assay); conditions: 48 hours, extracts at 500 μg/ml, vs controls
Procedure: as §1, §2, §3
Trypsin-like protease activity was measured using the liquid BAPNA assay, a colourimetric assay in which the amount of trypsin present in a sample is directly proportional to the intensity of the colour developed. […]

Aerobes = assay: Canine plate biofilm assay (PBA): bacterial viable counts, aerobes; conditions: extracts at 500 μg/ml, counted after 2 days, vs controls
Procedure: as §1, §2
as §3, with “saliva.” for “saliva. The preconditioning step stimulates the formation of a salivary pellicle on the HA disc surface.”
(§4) Viable numbers of bacteria were quantified using Columbia blood agar plates supplemented with haemin and menadione. Aerobes were counted after incubation for 2 days and anaerobes, including black pigmenting colonies (BPC), were counted after incubation at appropriate conditions for 9 days. […]

anaerobes = assay: Canine plate biofilm assay (PBA): bacterial viable counts, anaerobes; conditions: extracts at 500 μg/ml, counted after 9 days, vs controls
Procedure: as §1, §2
as §3, with “saliva.” for “saliva. The preconditioning step stimulates the formation of a salivary pellicle on the HA disc surface.”
as §4

[3] = tested on: black pigmenting colonies (BPC); assay: Canine plate biofilm assay (PBA): bacterial viable counts, black pigmenting colonies; conditions: extracts at 500 μg/ml, counted after 9 days, vs controls
Procedure: as §1, §2
as §3, with “saliva.” for “saliva. The preconditioning step stimulates the formation of a salivary pellicle on the HA disc surface.”
as §4

[H]/N=C(\N/C(=N/[H])NCCCCCCNC(=N)NC(=N)Nc1ccc(Cl)cc1)Nc1ccc(Cl)cc1 [Chlorhexidine, chlorhexidine]
Biomass (% reduction) [1]: 94.40% | Protease (% reduction) [2]: 95.76% | Aerobe (log 10 reduction) (Aerobes): 2.87 log 10 reduction | Anaerobe (Log 10 reduction) (anaerobes): 2.48 Log 10 reduction | BPC (Log 10 reduction) [3]: 2.74 Log 10 reduction
